Measured values as given in patent US20080063628A1, “METHODS TO PROMOTE CELL DIFFERENTIATION” (priority 2006, published 2008).

Columns and labels:
[1] = test system: early passage (P5) pancreatic-derived stromal cell line; assay: Two high dose trichostatin A treatments (first 48 h), gene expression by RT-PCR (Example 9); type: cell-based, human; conditions: for HNF-3 beta gene expression / Insulin gene expression / Pdx-1 gene expression / glucagon gene expression: 5 μM 0-48 h + 96-120 h;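 as to HNF-3 beta RT-PCR detection cycle: lower cycle number means higher gene expression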;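 as to glucagon RT-PCR detection cycle: lower cycle number means higher gene expression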
Procedure: (§1) Several cell lines obtained from different amniotic fluid specimens (see Example 14) and pancreas donors (see Example 13) were tested with similar results. Two lines at similar passage number but derived from different amniotic fluid specimens are shown in Table VIII-A and Table VIII-B for this example. One of these cell lines was also used in examples 2 and 4 above. In addition, this example also contains comparison data in Table VIII-C and Table VIII-D for a single pancreatic-derived stromal line grown to early and late passage number.
(§2) Amniotic fluid derived cells or pancreatic-derived stromal cells were seeded into 24-well tissue culture plates at a density of 5000/cm^2 and cultured in AMNIOMAX (Invitrogen) or DMEM with 10% FBS respectively under standard cell culture conditions until confluent. After reaching confluence, amniotic fluid derived cells were treated at time 0 hours with a dose of 1.25 μM trichostatin A, and pancreatic-derived stromal cells were treated with a dose of 5.0 μM trichostatin A solubilized in DMSO and medium. At time 48 hours, cell cultures underwent a complete medium change to remove all traces of trichostatin A. At time 96 hours, cell cultures were re-fed with fresh medium and received a second dose of trichostatin A at the same concentration as used previously. At time 120 hours, cell cultures again underwent a complete medium change and were cultured for an additional 24 hours or […] total incubation time. Samples were taken for RT-PCR at the times indicated in Table IX-A to D. RNA samples were obtained daily from the start of the experiment. Culture medium was removed, and cells were washed with PBS then collected in RLT with β-mercaptoethanol (Qiagen). RNA was purified using the RNeasy Mini Kit (Qiagen) and RNA quantity and quality was determined using a spectrophotometer. cDNA was made using the iScript cDNA synthesis kit (BioRad). Human pancreas cDNA was included as a control. Results were normalized against GAPDH expression levels.
(§3) Gene expression levels of Sox17, HNF-3 beta, Pdx-1, insulin, and glucagon were analyzed in amniotic-derived cells, while expression levels of glucagon, insulin, HNF-3 beta, and Pdx-1 were analyzed in pancreas-derived cells. Samples of 20 ng cDNA was used in each Real-Time PCR reaction. RT-PCR was performed on the Applied Biosystems 7500, according to the methods described in Example 15. The data were analyzed using the accompanying software.
(§4) Real-time PCR amplifcation and quantitative analysis. Unless otherwise stated, all reagents were purchased from Applied Biosystems. Real-time PCR reactions were performed using the ABI PRISM™ 7500 Sequence Detection System. TAQMAN™ FAST UNIVERSAL PCR MASTER MIX™ (ABI, CA) was used with 20 ng of reverse transcribed RNA in a total reaction volume of 20 μl. Each cDNA sample was run in duplicate to allow correction of pipetting errors. Primers and FAM-labeled TAQMAN™ probes were used at concentrations of 200 nM. The level of expression for each target gene was normalized using the pre-developed Applied Biosystem's human glyceraldehyde-3-phosphate dehydrogenase (GAPDH) endogenous control kit. Primers and probes were designed using either ABI PRISM PRIMER EXPRESS™ software or a pre-developed ABI gene analysis kit. For each gene, either one of the primers or the probe were designed to be exon-boundary spanning. This eliminated the possibility of the primers/probe binding to any genomic DNA present. The primer and probe sets are listed as follows: Pdx-1 (Hs00426216), Insulin (Hs00355773), glucagon (Hs00174967), and FoxA2 (HNF 3-beta) (Hs00232764). The remaining primers were designed using the PRIMERS program (ABI, CA). After an initial 95° C. incubation for 20 sec, samples were cycled 40 times in two stages: a denaturation step at 95° C. for 3 sec, followed by an annealing/extension step at 60° C. for 30 sec. […]

[2] = test system: second amniotic fluid-derived cell line; assay: as above; type: cell-based, human; conditions: for Gata1 gene expression / HNF-3 beta gene expression / Insulin gene expression / Pdx-1 gene expression / sox17 gene expression: 1.25 μM 0-48 h + 96-120 h;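 as to Gata-1 RT-PCR detection cycle: lower cycle number means higher gene expression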;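 as to HNF-3 beta RT-PCR detection cycle: lower cycle number means higher gene expression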
Procedure: as §1, §2, §3, §4

[3] = 5.0 μM, following the second addition
[4] = 1.25 μM, following the second treatment

Structure (SMILES): CC(/C=C/C(=O)NO)=C\[C@@H](C)C(=O)c1ccc(N(C)C)cc1 [trichostatin A]
- HNF-3 beta gene expression ([1]; 24 hrs): +++ (detectable at less than 35 cycles by RT-PCR with SE less than 0.9)
- Insulin gene expression ([1]; 24 hrs): nd (not detectable at >40 cycles by RT-PCR)
- Pdx-1 gene expression ([1]; 24 hrs): +++ (detectable at less than 35 cycles by RT-PCR with SE less than 0.9)
- glucagon gene expression ([1]; 24 hrs): +++ (detectable at less than 35 cycles by RT-PCR with SE less than 0.9)
- HNF-3 beta gene expression ([1]; 48 hrs): +++ (detectable at less than 35 cycles by RT-PCR with SE less than 0.9)
- Insulin gene expression ([1]; 48 hrs): nd (not detectable at >40 cycles by RT-PCR)
- Pdx-1 gene expression ([1]; 48 hrs): +++ (detectable at less than 35 cycles by RT-PCR with SE less than 0.9)
- glucagon gene expression ([1]; 48 hrs): +++ (detectable at less than 35 cycles by RT-PCR with SE less than 0.9)
- HNF-3 beta gene expression ([1]; 72 hrs): nd (not detectable at >40 cycles by RT-PCR)
- Insulin gene expression ([1]; 72 hrs): +++ (detectable at less than 35 cycles by RT-PCR with SE less than 0.9)
- Pdx-1 gene expression ([1]; 72 hrs): nd (not detectable at >40 cycles by RT-PCR)
- glucagon gene expression ([1]; 72 hrs): + (detectable between 35 and 40 cycles by RT-PCR)
- HNF-3 beta gene expression ([1]; 96 hrs): nd (not detectable at >40 cycles by RT-PCR)
- Insulin gene expression ([1]; 96 hrs): nd (not detectable at >40 cycles by RT-PCR)
- Pdx-1 gene expression ([1]; 96 hrs): nd (not detectable at >40 cycles by RT-PCR)
- glucagon gene expression ([1]; 96 hrs): + (detectable between 35 and 40 cycles by RT-PCR)
- HNF-3 beta gene expression ([1]; 120 hrs): +++ (detectable at less than 35 cycles by RT-PCR with SE less than 0.9)
- Insulin gene expression ([1]; 120 hrs): nd (not detectable at >40 cycles by RT-PCR)
- Pdx-1 gene expression ([1]; 120 hrs): +++ (detectable at less than 35 cycles by RT-PCR with SE less than 0.9)
- glucagon gene expression ([1]; 120 hrs): + (detectable between 35 and 40 cycles by RT-PCR)
- Pdx-1 RT-PCR detection cycle ([1]; 5.0 μM, 48 hours): 32 cycles
- glucagon RT-PCR detection cycle ([1]; 5.0 μM, 48 hours): 33 cycles
- glucagon RT-PCR detection cycle ([1]; 5.0 μM, after trichostatin A was removed): 38 cycles
- Insulin RT-PCR detection cycle ([1]; 5.0 μM, following the medium change): 33 cycles
- Pdx-1 RT-PCR detection cycle [1, 3]: 32 cycles
- glucagon RT-PCR detection cycle [1, 3]: 37 cycles
- glucagon RT-PCR detection cycle ([1]; 5.0 μM, following treatment): 35 cycles
- HNF-3 beta RT-PCR detection cycle ([1]; 5.0 μM, following treatment until removal): 34 cycles
- HNF-3 beta RT-PCR detection cycle ([1]; 5.0 μM, when trichostatin A was added again): 33 cycles
- Gata1 gene expression ([2]; 24 hrs): + (detectable between 35 and 40 cycles by RT-PCR)
- HNF-3 beta gene expression ([2]; 24 hrs): +++ (detectable at less than 35 cycles by RT-PCR with SE less than 0.9)
- Insulin gene expression ([2]; 24 hrs): nd (not detectable at >40 cycles by RT-PCR)
- Pdx-1 gene expression ([2]; 24 hrs): ++ (detectable at less than 35 cycles by RT-PCR with SE greater than 0.9)
- sox17 gene expression ([2]; 24 hrs): +++ (detectable at less than 35 cycles by RT-PCR with SE less than 0.9)
- Gata1 gene expression ([2]; 48 hrs): nd (not detectable at >40 cycles by RT-PCR)
- HNF-3 beta gene expression ([2]; 48 hrs): +++ (detectable at less than 35 cycles by RT-PCR with SE less than 0.9)
- Insulin gene expression ([2]; 48 hrs): nd (not detectable at >40 cycles by RT-PCR)
- Pdx-1 gene expression ([2]; 48 hrs): + (detectable between 35 and 40 cycles by RT-PCR)
- sox17 gene expression ([2]; 48 hrs): +++ (detectable at less than 35 cycles by RT-PCR with SE less than 0.9)
- Gata1 gene expression ([2]; 72 hrs): nd (not detectable at >40 cycles by RT-PCR)
- HNF-3 beta gene expression ([2]; 72 hrs): +++ (detectable at less than 35 cycles by RT-PCR with SE less than 0.9)
- Insulin gene expression ([2]; 72 hrs): nd (not detectable at >40 cycles by RT-PCR)
- Pdx-1 gene expression ([2]; 72 hrs): nd (not detectable at >40 cycles by RT-PCR)
- sox17 gene expression ([2]; 72 hrs): +++ (detectable at less than 35 cycles by RT-PCR with SE less than 0.9)
- Gata1 gene expression ([2]; 96 hrs): nd (not detectable at >40 cycles by RT-PCR)
- HNF-3 beta gene expression ([2]; 96 hrs): + (detectable between 35 and 40 cycles by RT-PCR)
- Insulin gene expression ([2]; 96 hrs): nd (not detectable at >40 cycles by RT-PCR)
- Pdx-1 gene expression ([2]; 96 hrs): nd (not detectable at >40 cycles by RT-PCR)
- sox17 gene expression ([2]; 96 hrs): +++ (detectable at less than 35 cycles by RT-PCR with SE less than 0.9)
- Gata1 gene expression ([2]; 120 hrs): + (detectable between 35 and 40 cycles by RT-PCR)
- HNF-3 beta gene expression ([2]; 120 hrs): +++ (detectable at less than 35 cycles by RT-PCR with SE less than 0.9)
- Insulin gene expression ([2]; 120 hrs): nd (not detectable at >40 cycles by RT-PCR)
- Pdx-1 gene expression ([2]; 120 hrs): +++ (detectable at less than 35 cycles by RT-PCR with SE less than 0.9)
- sox17 gene expression ([2]; 120 hrs): +++ (detectable at less than 35 cycles by RT-PCR with SE less than 0.9)
- HNF-3 beta RT-PCR detection cycle ([2]; 1.25 μM, by 96 hours): 37 cycles
- HNF-3 beta RT-PCR detection cycle ([2]; 1.25 μM, first 72 hours): 34 cycles
- Pdx-1 RT-PCR detection cycle ([2]; 1.25 μM, following the initial 48-hour treatment): 35 cycles
- Gata-1 RT-PCR detection cycle [2, 4]: 38 cycles
- HNF-3 beta RT-PCR detection cycle [2, 4]: 33 cycles
- Pdx-1 RT-PCR detection cycle [2, 4]: 34 cycles
